Earlier results as cited in article PMC9881854 (bioRxiv, 2023).

System: mTOR

CO[C@H]1C[C@@H]2CC[C@@H](C)[C@@](O)(O2)C(=O)C(=O)N2CCCC[C@H]2C(=O)O[C@H]([C@H](C)C[C@@H]2CC[C@@H](O)[C@H](OC)C2)CC(=O)[C@H](C)/C=C(\C)[C@@H](O)[C@@H](OC)C(=O)[C@H](C)C[C@H](C)/C=C/C=C/C=C/1C [rapamycin]
binding of rapamycin by itself to mTOR: weak micromolar binder
